Source: PubChem BioAssay (NCI)
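1) Cells in 96-well plates. 2) Compound, 48 h, 5 concentrations. 3) Linear interpolation between surrounding doses. 4) Unreached endpoint = highest concentration. TGI marks complete inhibition of growth.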 Where a SMILES comes first, the peptide text is derived from it. [ ]: non-standard residue; d: D form. The star is where a group is joined. ξ: configuration not given here. ξHyp = O=C(O)C1CC(O)CN1; Cbz = O=C(OCc1ccccc1)*

Columns and labels:
Experiment in all cases: NCI-60 cell line screen, 48 h
M14 melanoma = system: M14 melanoma
MALME-3M melanoma = system: MALME-3M melanoma
BT-549 breast = system: BT-549 breast
NCI-H522 lung = system: NCI-H522 lung
NCI-H460 lung = system: NCI-H460 lung
OVCAR-3 ovarian = system: OVCAR-3 ovarian
SF-268 CNS = system: SF-268 CNS
DU-145 prostate = system: DU-145 prostate
ACHN renal = system: ACHN renal
UACC-62 melanoma = system: UACC-62 melanoma
RPMI-8226 leukemia = system: RPMI-8226 leukemia
A549 NSCLC = system: A549 NSCLC
HCT-116 colon = system: HCT-116 colon
MDA-N = system: MDA-N
CCRF-CEM leukemia = system: CCRF-CEM leukemia
UO-31 renal = system: UO-31 renal
K-562 leukemia = system: K-562 leukemia
HCT-15 colon = system: HCT-15 colon
A498 renal = system: A498 renal
SR leukemia = system: SR leukemia
TK-10 renal = system: TK-10 renal
U251 CNS = system: U251 CNS
SF-295 CNS = system: SF-295 CNS
HOP-62 NSCLC = system: HOP-62 NSCLC
PC-3 prostate = system: PC-3 prostate
HT29 colon = system: HT29 colon
MDA-MB-435 = system: MDA-MB-435
LOX IMVI melanoma = system: LOX IMVI melanoma
OVCAR-8 ovarian = system: OVCAR-8 ovarian
MDA-MB-231 breast = system: MDA-MB-231 breast
UACC-257 melanoma = system: UACC-257 melanoma
SNB-75 CNS = system: SNB-75 CNS
MCF7 breast = system: MCF7 breast
786-0 renal = system: 786-0 renal
SN12C renal = system: SN12C renal
RXF 393 renal = system: RXF 393 renal
MOLT-4 leukemia = system: MOLT-4 leukemia
COLO 205 colon = system: COLO 205 colon
SW-620 colon = system: SW-620 colon
HS 578T breast = system: HS 578T breast
OVCAR-4 ovarian = system: OVCAR-4 ovarian
SK-MEL-28 melanoma = system: SK-MEL-28 melanoma
SNB-19 CNS = system: SNB-19 CNS
NCI-H226 lung = system: NCI-H226 lung
SK-MEL-2 melanoma = system: SK-MEL-2 melanoma
NCI/ADR-RES ovarian = system: NCI/ADR-RES ovarian
NCI-H23 lung = system: NCI-H23 lung
KM12 colon = system: KM12 colon
HCC-2998 colon = system: HCC-2998 colon
T-47D breast = system: T-47D breast
SK-OV-3 ovarian = system: SK-OV-3 ovarian
HL-60(TB) leukemia = system: HL-60(TB) leukemia
IGROV1 ovarian = system: IGROV1 ovarian
OVCAR-5 ovarian = system: OVCAR-5 ovarian
SK-MEL-5 melanoma = system: SK-MEL-5 melanoma
EKVX NSCLC = system: EKVX NSCLC

Measured: TGI

NC(=O)CNC(=O)C1CC(O)CN1C(=O)OCc1ccccc1 (stereo unspecified) (Cbz-[ξHyp]-Gly-NH2)
> 100 µM: M14 melanoma | MALME-3M melanoma | BT-549 breast | NCI-H522 lung | NCI-H460 lung | OVCAR-3 ovarian | SF-268 CNS | DU-145 prostate | ACHN renal | UACC-62 melanoma | RPMI-8226 leukemia | A549 NSCLC | HCT-116 colon | MDA-N | CCRF-CEM leukemia | UO-31 renal | K-562 leukemia | HCT-15 colon | A498 renal | SR leukemia | TK-10 renal | U251 CNS | SF-295 CNS | HOP-62 NSCLC | PC-3 prostate | HT29 colon | MDA-MB-435 | LOX IMVI melanoma | OVCAR-8 ovarian | MDA-MB-231 breast | UACC-257 melanoma | SNB-75 CNS | MCF7 breast | 786-0 renal | SN12C renal | RXF 393 renal | MOLT-4 leukemia | COLO 205 colon | SW-620 colon | HS 578T breast | OVCAR-4 ovarian | SK-MEL-28 melanoma | SNB-19 CNS | NCI-H226 lung | SK-MEL-2 melanoma | NCI/ADR-RES ovarian | NCI-H23 lung | KM12 colon | HCC-2998 colon | T-47D breast | SK-OV-3 ovarian | HL-60(TB) leukemia | IGROV1 ovarian | OVCAR-5 ovarian | SK-MEL-5 melanoma | EKVX NSCLC
